Measured values: patent publication US20220168295A1, “RIMEGEPANT FOR CGRP RELATED DISORDERS” (Biohaven Pharmaceutical Ireland DAC, priority 2018, published 2022)

Tested on: subjects with Acute Migraines
Assay: Study 301 (BHV3000-301) Phase 3 placebo-controlled trial, rimegepant 75 mg tablet, acute treatment of migraine: efficacy and safety
Format: in vivo, human
Experimental: Clinical Trial—BHV3000-301: Phase 3: Double-Blind, Randomized, Placebo-Controlled, Safety and Efficacy Trial of BHV-3000 (Rimegepant) for the Acute Treatment of Migraine (ClinicalTrials.gov Identifier: NCT03235479). A phase 3 clinical study was conducted with 1490 participants, as follows. The purpose of this study was to compare the efficacy of BHV-3000 (rimegepant) versus placebo in subjects with Acute Migraines • Study Type: Interventional (Clinical Trial) • Actual Enrollment: 1490 participants • Allocation: Randomized • Intervention Model: Parallel Assignment • Intervention Model Description: Double-blind to Sponsor, Investigator and Subject Randomized Controlled Trial • Masking: Triple (Participant, Care Provider, Investigator) • Masking Description: Double-blind to Sponsor, Investigator and Subject • Primary Purpose: Treatment • Official Title: BHV3000-301: Phase 3: Double-Blind, Randomized, Placebo-Controlled, Safety and Efficacy Trial of BHV-3000 (Rimegepant) for the Acute Treatment of Migraine [table] • 1. Pain freedom of rimegepant (75 mg tablet) compared with placebo in the acute treatment of migraine will be measured using the number of evaluable subjects that report no pain at 2 hours post-dose. [Time Frame: Two hours post dose] • Pain will be measured on a 4 point Likert scale (0=none, 1=mild, 2=moderate, 3=severe) • 2. Freedom from the most bothersome symptom (MBS) of rimegepant (75 mg tablet) compared with placebo will be measured using the number of evaluable subjects that report the absence of their MBS at 2 hours post-dose. [Time Frame: Two hours post dose] • The MBS (nausea, phonophobia or photophobia) will measured using a binary scale (0=absent, 1=present). • 1. […] [Time Frame: 2 hours −24 hours post-dose] • Sustained Pain Freedom as measured by a 4 point numeric rating scale (None, Mild, Moderate, Severe) • 2. The difference between rimegepant (75 mg tablet) compared to placebo by tabulating the absence of photophobia at 2 hours post-dose in the subset of subjects that reported the presence of photophobia at headache baseline. [Time Frame: 2 hours post-dose] • Photophobia • 3. To evaluate rimegepant (75 mg tablet) compared to placebo by tabulating the number of subjects that report the absence of phonophobia at 2 hours post-dose in the subset of subjects that reported the presence of phonophobia at headache baseline. [Time Frame: 2 hours post-dose] • Phonophobia • 4. To measure the difference between rimegepant (75 mg tablet) compared to placebo on Pain Relief, at 2 hours post-dose, for those that report a pain level of moderate or severe at baseline and then report a pain level of none or mild. [Time Frame: 2 hours post-dose] • Pain Relief as measured by a 4 point numeric rating scale (None, Mild, Moderate, Severe) • 5. Freedom from Nausea by tabulating the number of subjects that report the absence of nausea at 2 hours post-dose in the subset of subjects that reported the presence of nausea at headache baseline. [Time Frame: 2 hours post-dose] • Freedom from Nausea • 6. The difference between rimegepant (75 mg tablet) compared to placebo on the probability of requiring rescue medication using the number of subjects that take rescue medication within […] administration of study medication (BHV3000 or placebo). [Time Frame: up to 24 hours post-dose] • Requiring Rescue Medication • 7. […] [Time Frame: 2 hours-24 hours post-dose] • Sustained Pain Freedom • 8. […] [Time Frame: 2 hours-24 hours post-dose] • Sustained Pain Relief as measured by a 4 point numeric rating scale (None, Mild, Moderate, Severe) • 9. […] [Time Frame: 2 hours-48 hours post-dose] • Sustained Pain Relief as measured by a 4 point numeric rating scale (None, Mild, Moderate, Severe) • 10. To measure the difference between rimegepant (75 mg tablet) relative to placebo on the proportion of subjects able to function normally, at 2 hours, using the number of subjects that self-report as “normal” on the functional disability scale. […]

With `N[C@@H]1c2cccnc2[C@H](OC(=O)N2CCC(n3c(=O)[nH]c4ncccc43)CC2)CC[C@H]1c1cccc(F)c1F` [Rimegepant, [(5S,6S,9R)-5-amino-6-(2,3-difluorophenyl)-6,7,8,9-tetrahydro-5H-cyclohepta[b]pyridin-9-yl] 4-(2-oxo-3H-imidazo[4,5-b]pyridin-1-yl)piperidine-1-carboxylate] the “SAEs related to the study drug” value was “No SAE was determined to be related to the study drug”, the “Transaminase level >5 times ULN, subjects” value was “no subject” and the “Adverse event dizziness, incidence” value (4/546) was 0.7%. For the same compound, the “Adverse event nausea, incidence” value (5/546) was 0.9%, the “Serum ALT or AST levels greater than ULN, subjects” value (11/546) was 2.0% and the “Proportion of patients achieving normal function at 2 hours (functional disability) versus placebo” value (P<0.0001) was “greater proportion”. For the same compound, the “Serious AEs (SAEs), subjects” value (n=2, both not dosed before onset) was 0.4% and the “Transaminase level >3 times ULN, subjects” value (one subject) was 0.2%.
